Target: T1, androgen receptor (AR) (Homo sapiens, UniProt P10275)
T1 construct: human keratinocytes transfected with an AR luciferase reporter gene; endogenous in cells; host or cells: normal human adult primary epidermal keratinocytes (ATCC PCS-200-011)
T1 sequence (P10275 1-920): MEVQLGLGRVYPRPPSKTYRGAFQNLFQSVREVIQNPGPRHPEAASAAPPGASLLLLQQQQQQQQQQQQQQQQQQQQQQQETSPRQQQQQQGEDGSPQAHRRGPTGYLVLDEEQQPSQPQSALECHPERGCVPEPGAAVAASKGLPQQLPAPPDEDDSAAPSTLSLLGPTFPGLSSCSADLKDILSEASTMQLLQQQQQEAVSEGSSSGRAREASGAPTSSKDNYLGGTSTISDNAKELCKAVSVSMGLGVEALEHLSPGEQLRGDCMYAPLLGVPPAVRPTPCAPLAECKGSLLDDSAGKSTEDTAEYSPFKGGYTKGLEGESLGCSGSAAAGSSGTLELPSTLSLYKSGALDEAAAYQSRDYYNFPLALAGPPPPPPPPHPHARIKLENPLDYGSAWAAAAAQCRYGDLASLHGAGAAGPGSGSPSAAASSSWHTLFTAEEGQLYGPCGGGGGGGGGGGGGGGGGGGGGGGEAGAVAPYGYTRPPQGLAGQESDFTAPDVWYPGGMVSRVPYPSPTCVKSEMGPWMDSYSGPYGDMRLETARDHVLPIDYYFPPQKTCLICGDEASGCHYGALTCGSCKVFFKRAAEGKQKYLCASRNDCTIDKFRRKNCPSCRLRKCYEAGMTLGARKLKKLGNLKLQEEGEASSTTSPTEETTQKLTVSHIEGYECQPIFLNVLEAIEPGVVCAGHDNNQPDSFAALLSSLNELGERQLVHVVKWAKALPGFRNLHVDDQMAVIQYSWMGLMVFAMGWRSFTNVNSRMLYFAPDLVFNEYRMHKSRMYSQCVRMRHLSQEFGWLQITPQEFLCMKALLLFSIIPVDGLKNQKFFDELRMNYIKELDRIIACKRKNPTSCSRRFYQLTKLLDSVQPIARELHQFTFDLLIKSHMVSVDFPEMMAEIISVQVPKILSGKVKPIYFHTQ
Assay: Keratinocyte AR protein level ELISA (Example 10)
Assay type: cell-based
Conditions: 24 h, read-out: AR Reduction
Procedure: Each ARE tested was prepared in DMSO. […] Ethanol concentrations in media never exceeded 0.1%.
To assess levels of AR, an ELISA was performed.

Work on `CC12CCC(=O)C=C1C[C@@H](SC(=O)CC13CC4CC(CC(C4)C1)C3)C1C2CCC2(C)C1CC[C@@]21CCC(=O)O1` (stereo partly shown) [SPG-003] yielded an inhibition at 0.1 µM of 6%, an inhibition at 1 µM of 19% and an inhibition at 3 µM of 26%. It also gave an inhibition at 10 µM of 65%.
